For one assay, the system named is soybean seeds. Description: Germination test on soybean (agar plates, climate chamber). It counts as in vivo, soybean (variety Cordoba). Conditions: seed treatment, 10° C. in darkness, after 4 days, average of 5 replicates of 20 seeds. The method, then:
Test is performed in a climate chamber. 20 soybean seeds per treatment of the variety Cordoba were sown on agar plates (0.8% agar). 5 replicates were made. The active ingredient was solved in a solvent and seed treatment was performed with a lab equipment. Plates were incubated at 10° C. in darkness. After 4 days the germination rate and root length were assessed.
(§1) average of 5 replicates of 20 seeds

In a further assay the test system is wheat seeds. Description: Germination test on wheat (agar plates, climate chamber). It is filed as in vivo, wheat (variety Tuareg). Particulars: seed treatment, 10° C. in darkness, after 2 days, average of 5 replicates of 20 seeds. How it is done:
For wheat experiments 20 wheat seeds per treatment of the variety Tuareg were sown on agar plates (1.4% agar). 5 replicates were made. The active ingredient was solved in a solvent and seed treatment was performed with a lab equipment. Plates were incubated at 10° C. in darkness. After 2 days the germination rate and root length were assessed.
as §1

The test system of a further assay is soybean. Description: Greenhouse experiments on soybean (seed treatment, root weight and leaf area). Particulars: sand/perlite with arbuscular mycorrhizal inoculum, 6 weeks greenhouse, average of 3 replicates of 5 plants. It counts as in vivo, soybean (variety Cordoba). How it is done:
Test is performed in the greenhouse. 5 soybean seeds per treatment of the variety Cordoba were sown in 500 ml rose pots (7×7×18 cm) containing a mix of sand and perlite (1:1). 3 replicates were made. The active ingredient was solved in a solvent and seed treatment was performed with a lab equipment.
To inoculate with arbuscular mycorrhizal fungi, 10 g inoculum (Vaminoc; MicroBio Ltd.) were mixed with 1 l of the sand-perlite mixture.
Seeds were covered by 3 cm of LECA (light expanded clay aggregate). Pots were incubated in the greenhouse for 6 weeks at 22° C./15° C. (day/night) and 80% relative humidity. Assessment consisted of root weight and leaf area.
average of 3 replicates of 5 plants

The subject of a further assay is Winter wheat. Description: Field trials 2: winter wheat, Germany (Bergisches Land). Conditions: in comparison to the untreated control. It is filed as in vivo, Winter wheat (variety Dekan). The method, then:
b) Field trials 2: Winter wheat: Germany (Bergisches Land):
Seeds of the variety “Dekan” were planted on December with a seed density of 400 seeds/m^2 on a non-fertilized soil. The plot size was 6 m×2.5 m (=15 m^2) and four randomised replicates were used. The application of plant protection products were carried out according to the good agricultural practise. The evaluation of different growth parameters was done during the season.
Dosages Winter Wheat (Bergisches Land):
Base: Insecticide (I): Imidacloprid; Fungicides (F): Fluoxastrobin & Tebuconazole & Prothioconazole.

Experimental findings from US9131685B2, “Compositions comprising a strigolactone compound and a chito-oligosaccharide compound for enhanced plant growth and yield” (Bayer CropScience AG, priority 2009, dated 2015) are described below.

In the assay with soybean seeds, `CC1=CC(O/C=C2/C(=O)OC3c4ccccc4CC23)OC1=O` (stereo not shown) [Compound A1] came in with a Germination rate of 63% and a Root length of 5.19 cm. Also, in the assay with wheat seeds, the Germination rate was 27% and the Root length was 3.04 cm. Further, in the assay with soybean, the “Leaf Area” value is listed as 35.67 cm^2 and the Root weight was 11.13 g.
Take `CCCCCC/C=C\CCCOc1cccc(C(=O)NC2C(O[C@@H]3C(CO)OC(OC4C(CO)O[C@@H](O[C@@H]5C(CO)OC(OC6C(CO)OC(O)C(NC(C)=O)C6O)C(NC(C)=O)C5O)C(NC(C)=O)C4O)C(NC(C)=O)C3O)OC(CO)[C@@H](O)C2O)c1` (stereo partly shown) [Compound B1]: in the assay on soybean seeds, the Germination rate is recorded as 58% and the Root length came to 5.64 cm. In the assay with wheat seeds, this molecule returned a Germination rate of 8% and a Root length of 2.34 cm. In addition, in the assay on Winter wheat, the “yield in dt/ha, in words” value is “increased yield”. In the assay with soybean, the “Leaf Area” value worked out at 36.82 cm^2 and the Root weight is recorded as 9.19 g.
In the assay on soybean seeds, `CCCCCC/C=C\CCCOc1cccc(C(=O)NC2C(O)[C@H](O)C(CO)O[C@H]2O[C@@H]2C(CO)O[C@@H](O[C@@H]3C(CO)O[C@@H](O[C@@H]4C(CO)O[C@@H](O[C@@H]5C(CO[C@@H]6OC(C)[C@@H](O)C(O)C6O)OC(O)C(NC(C)=O)C5O)C(NC(C)=O)C4O)C(NC(C)=O)C3O)C(NC(C)=O)C2O)c1` (stereo partly shown) [Compound B2] came in with a Germination rate of 68% and a Root length of 5.61 cm. Besides, in the assay with wheat seeds, the Germination rate came out at 18% and the Root length worked out at 2.02 cm.
As to `CCCCCC/C=C\CCCOc1cccc(C(=O)NC2C(O[C@@H]3C(CO)OC(OC4C(CO)O[C@@H](O[C@@H]5C(CO)OC(OC6C(CO[C@@H]7OC(C)C(O)C(O)C7OC)OC(O)C(NC(C)=O)C6O)C(NC(C)=O)C5O)C(NC(C)=O)C4O)C(NC(C)=O)C3O)OC(CO)[C@@H](O)C2O)c1` (stereo partly shown) [Compound B3], in the assay with soybean seeds, the Germination rate came to 59% and the Root length turned out to be 5.13 cm. Also, in the assay on wheat seeds, the Germination rate is on record as 17% and the Root length was found to be 2.18 cm.
Consider `OC(Cc1ccccc1Cl)(Cn1nc[nH]c1=S)C1(Cl)CC1` (stereo not shown) [Prothioconazole, reference compound], for which, in the assay with soybean, the “Leaf Area” value is on record as 20.58 cm^2 and the Root weight was 16.8 g.
In the same order, the values of `CON=C(C(=O)OC)c1ccccc1CON=C(C)c1cccc(C(F)(F)F)c1` [Trifloxystrobin, reference compound] are 24.80 cm^2 and 18.2 g.
